pIC50: −log10 of the molar value. Read-outs that look alike come from different tables or passages of the source.
Experiments:
VIM-1 = VIM-1 (Pseudomonas aeruginosa (strain ATCC 15692 / DSM 22644 / CIP 104116 / JCM 14847 / LMG 12228 / 1C / PRS 101 / PAO1), UniProt A0A0F7KYQ8); assay: biochemical; conditions: CCF2-FA substrate, 30 pM enzyme, 2 hours at 25° C.
In short: (§1)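 Enzyme activity was measured by fluorescence using CCF2-FA, a cephalosporin-linked 7-hydroxycoumarin/fluorescein substrate, with inhibitor, metallo-β-lactamase and substrate incubated together for 2 hours at 25° C. IC50 came from a 4-parameter fit of inhibition versus log inhibitor concentration.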

[1] = tested on: Pseudomonas aeruginosa efflux− (MB9799), IMP-1; assay type: cell-based; conditions: C, D serine β-lactamase inhibitor closely related to relebactam; for P. aeruginosa expressing IMP-1, efflux − (MB9799) MITC95: concentration restoring susceptibility to imipenem at 2 μg/mL in the presence of a class A
In short: (§2)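 Microbroth MIC tests in PAO1-background strains with fixed imipenem and/or ceftazidime, usually at the CLSI breakpoint, plus fixed class A/C β-lactamase inhibitor against AmpC. MBL inhibitor titrated; concentration restoring susceptibility recorded and compared as fold difference between efflux+ MB9798 and efflux− MB9799.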

[2] = tested on: Pseudomonas aeruginosa MB9798 vs MB9799
In short: as §2

[3] = tested on: Pseudomonas aeruginosa efflux+ (MB9798), IMP-1; assay type: cell-based; parameters: Concentration of metallo-β-lactamase inhibitor which restores susceptibility of efflux + (MB9798) strain to imipenem: unit not given here; conditions: C, D serine β-lactamase inhibitor closely related to relebactam; for P. aeruginosa expressing IMP-1, efflux + (MB9798) MITC95: concentration restoring susceptibility to imipenem at 2 μg/mL in the presence of a class A
In short: as §2

[4] = tested on: Klebsiella pneumoniae expressing VIM-1 (IHMA599644); assay type: cell-based; conditions: for Klebsiella pneumoniae MITC95: VIM-1 strain IHMA599644, with imipenem 1 μg/ml, 95% inhibition of growth; for Klebsiella pneumoniae expressing VIM-1 (IHMA599644) MITC95: with imipenem 1 μg/ml, 95% inhibition of bacterial growth
In short: (§3)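 Imipenem 1 μg/ml + inhibitor; MBL-expressing clinical strains in 1.1×CAMHB, inoculum from saline suspension diluted 1:100; 35° C, 22–24 h; absorbance read-out.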

[5] = tested on: Serratia marcescens expressing IMP-1 (CL5741); assay type: cell-based; conditions: for Serratia marcescens MITC95: IMP-1 strain CL5741, with imipenem 1 μg/ml, 95% inhibition of growth; for Serratia marcescens expressing IMP-1 (CL5741) MITC95: with imipenem 1 μg/ml, 95% inhibition of bacterial growth
In short: as §3

[6] = tested on: Escherichia coli expressing NDM-1 (CLB30005, CLB30016); assay type: cell-based; conditions: with imipenem 1 μg/ml; for Escherichia coli MITC95: NDM-1 strain, 95% inhibition of growth; for Escherichia coli expressing NDM-1 (CLB30016) MITC95: 95% inhibition of bacterial growth
In short: as §3

IMP-1 = IMP-1 (Serratia marcescens, UniProt P52699); assay: biochemical; assay type: biochemical; conditions: fluorescence assay, CCF2-FA substrate, 2 pM enzyme, 2 hours at 25° C.; read-out: IMP-1 IC50
In short: as §1

NDM-1 = NDM-1 (Klebsiella pneumoniae, UniProt C7C422); assay: biochemical; assay type: biochemical; conditions: fluorescence assay, CCF2-FA substrate, 1 pM enzyme, 2 hours at 25° C.; read-out: NDM-1 IC50
In short: as §1

[7] = fluorescence assay, read-out: VIM-1 IC50
[8] = ratio MITC95 PA_9798/MITC95 PA_9799

Sequence of NDM-1 (C7C422 whole entry, looked up, species assumed): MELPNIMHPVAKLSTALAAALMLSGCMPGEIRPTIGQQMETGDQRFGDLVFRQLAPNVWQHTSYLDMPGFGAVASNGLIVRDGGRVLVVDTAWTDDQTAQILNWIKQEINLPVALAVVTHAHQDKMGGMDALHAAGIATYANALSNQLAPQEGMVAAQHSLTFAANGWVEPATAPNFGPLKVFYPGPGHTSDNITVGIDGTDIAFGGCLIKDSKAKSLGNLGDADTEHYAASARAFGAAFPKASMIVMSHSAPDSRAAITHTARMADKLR
Sequence of IMP-1 (P52699 whole entry, looked up, species assumed): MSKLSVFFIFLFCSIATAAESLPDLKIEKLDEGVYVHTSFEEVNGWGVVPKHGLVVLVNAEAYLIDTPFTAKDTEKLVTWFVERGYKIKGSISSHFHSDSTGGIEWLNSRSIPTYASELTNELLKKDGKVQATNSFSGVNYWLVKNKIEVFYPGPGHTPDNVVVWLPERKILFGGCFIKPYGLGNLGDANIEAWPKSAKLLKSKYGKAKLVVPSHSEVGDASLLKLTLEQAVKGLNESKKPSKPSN

SMILES | pIC50 (VIM-1; [7]) | Concentration of metallo-β-lactamase inhibitor which restores susceptibility of efflux − (MB9799) strain to imipenem ([1]; efflux− MB9799, imipenem at 2 μg/mL, in the presence of a class A) | Efflux ratio ([2]; fold difference between efflux+ (MB9798) and efflux− (MB9799) strains, imipenem at 2 μg/mL) | Concentration of metallo-β-lactamase inhibitor which restores susceptibility of efflux + (MB9798) strain to imipenem ([3]; efflux+ MB9798, imipenem at 2 μg/mL, in the presence of a class A) | Klebsiella pneumoniae MITC95 [4] | Serratia marcescens MITC95 [5] | Escherichia coli MITC95 [6] | pIC50 (IMP-1) | pIC50 (NDM-1) | P. aeruginosa expressing IMP-1, efflux − (MB9799) MITC95 [1] | Efflux ratio [2, 8] | P. aeruginosa expressing IMP-1, efflux + (MB9798) MITC95 [3] | pIC50 (VIM-1; VIM-1 IC50, fluorescence assay) | Klebsiella pneumoniae expressing VIM-1 (IHMA599644) MITC95 [4] | Serratia marcescens expressing IMP-1 (CL5741) MITC95 [5] | Escherichia coli expressing NDM-1 (CLB30016) MITC95 [6]
NC[C@@H]1C[C@@H](NS(=O)(=O)c2ccc(-c3cccc4[nH]c(N)nc34)c(-c3nn[nH]n3)c2S(N)(=O)=O)CN1 [Example 425, 4-(2-amino-1H-benzo[d]imidazol-4-yl)-N^1-((3R,5S)-5-(aminomethyl)pyrrolidin-3-yl)-3-(2H-tetrazol-5-yl)benzene-1,2-disulfonamide] | 9.80 | 1.563 | 1.00 | 1.563 | 3.125 µM | 3.125 µM | 0.7813 µM | 9.05 | 10.38 |  |  |  |  |  |  | 
NC[C@H](O)CNS(=O)(=O)c1ccc(-c2cccc3[nH]c(N)nc23)c(-c2nn[nH]n2)c1S(N)(=O)=O [Example 304, (S)-4-(2-amino-1H-benzo[d]imidazol-4-yl)-N1-(3-amino-2-hydroxypropyl)-3-(2H-tetrazol-5-yl)-benzene-1,2-disulfonamide] | 9.68 |  |  |  | 1.563 µM | 0.7813 µM | 0.3906 µM | 9.21 | 10.22 | 0.7813 µM | 0.50 | 0.3906 µM |  |  |  | 
NCCCCNS(=O)(=O)c1ccc(-c2cccc3[nH]c(N)nc23)c(-c2nn[nH]n2)c1S(N)(=O)=O [Example 258, 4-(2-amino-1H-benzo[d]imidazol-7-yl)-N1-(4-aminobutyl)-3-(2H-tetrazol-5-yl)benzene-1,2-disulfonamide] | 9.81 |  |  |  | 1.563 µM | 0.7813 µM | 0.1953 µM | 9.16 | 10.27 | 0.7813 µM | 1.00 | 0.7813 µM |  |  |  | 
Nc1nc2c(-c3ccc(S(=O)(=O)NCC4CNCCO4)c(S(N)(=O)=O)c3-c3nnn[nH]3)cccc2s1.O=C(O)C(F)(F)F (stereo not drawn) [Example 112, 2-((4-(2-aminobenzo[d]thiazol-4-yl)-2-sulfamoyl-3-(1H-tetrazol-5-yl)phenylsulfonamido)methyl)morpholin-4-ium 2,2,2-trifluoroacetate] |  |  |  |  |  |  |  | 9.50 | 10.34 | 1.563 µM | 1.00 | 1.563 µM | 9.66 | 3.125 µM | 1.563 µM | 1.563 µM
Nc1nc2c(-c3ccc(S(=O)(=O)N[C@@H]4CCCNC4)c(S(N)(=O)=O)c3-c3nnn[nH]3)cccc2s1 [Example 69, 4-(2-amino-1,3-benzothiazol-4-yl)-N1-[(3R)-piperidin-3-yl]-3-(1H-tetrazol-5-yl)benzene-1,2-disulfonamide] |  |  |  |  |  |  |  | 9.73 | 10.49 | 1.563 µM | 0.50 | 0.7813 µM | 9.73 | 3.125 µM | 1.563 µM | 0.7813 µM

Reference: patent US10221163B2 (priority 2015, dated 2019)
